{"source": "patent US6472348B1", "about": "“Pyridone derivatives and herbicides” (Kumiai Chemical Industry Co., Ltd., priority 1996, dated 2002);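 as to Herbicidal effects Ci: grade of growth control; 5 = at least 90%; 4 = 70 to 90%; 3 = 50 to 70%; 2 = 30 to 50%; 1 = 10 to 30%; 0 = under 10%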;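 as to Herbicidal effects Ec: grade of growth control; 5 = at least 90%; 4 = 70 to 90%; 3 = 50 to 70%; 2 = 30 to 50%; 1 = 10 to 30%; 0 = under 10%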;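 as to Herbicidal effects Mo: grade of growth control; 5 = at least 90%; 4 = 70 to 90%; 3 = 50 to 70%; 2 = 30 to 50%; 1 = 10 to 30%; 0 = under 10%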;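 as to Herbicidal effects Sc: grade of growth control; 5 = at least 90%; 4 = 70 to 90%; 3 = 50 to 70%; 2 = 30 to 50%; 1 = 10 to 30%; 0 = under 10%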", "key": {"[1]": {"tested_on": "Johnsongrass (So)", "assay": "Test Example 6: crop plant selectivity by upland field soil treatment (soybean), herbicidal effects", "format": "in vivo", "settings": "dose 6.3 g ai/10a, 21st day after application", "procedure": "(§1) (Test on Crop Plant Selectivity by Upland Field Soil Treatment)\n(§2) In a plastic pot (surface area: 600 cm^2) filled with sand, soybean (Gl), Diaitaria ciliaris (Di), green foxtail (Se), Johnsongrass (So), pale smartweed (Po), slender amaranth (Am), common lambsquarters (Ch) and China jute (Ab) were sown and covered with soil. […] The plants were then cultured in a green house, and the evaluation of the herbicidal effects and phytotoxicity was conducted on the 21st day after the application in accordance with the standards as identified in Table 47. Symbol—represents “not tested”."}, "[2]": {"tested_on": "Diaitaria ciliaris (Di)", "assay": "Test Example 6: crop plant selectivity by upland field soil treatment (soybean), herbicidal effects", "format": "in vivo", "settings": "dose 6.3 g ai/10a, 21st day after application", "procedure": "as §1, §2"}, "[3]": {"tested_on": "slender amaranth (Am)", "assay": "Test Example 4: crop plant selectivity by upland field soil treatment (cotton), herbicidal effects", "format": "in vivo", "set-up": "scale not given here", "settings": "dose 6.3 g ai/10 a, evaluated 21st day after application", "procedure,_shortened": "(§3)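 Upland soil treatment: crop and weed seeds in sand pots under a soil cover, compound applied to soil, greenhouse-grown, rated visually 21 d later.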"}, "[4]": {"tested_on": "common lambsquarters (Ch)", "assay": "Test Example 4: crop plant selectivity by upland field soil treatment (cotton), herbicidal effects", "format": "in vivo", "set-up": "scale not given here", "settings": "dose 6.3 g ai/10 a, evaluated 21st day after application", "procedure,_shortened": "as §3"}, "[5]": {"tested_on": "pale smartweed (Po)", "assay": "Test Example 4: crop plant selectivity by upland field soil treatment (cotton), herbicidal effects", "format": "in vivo", "set-up": "scale not given here", "settings": "dose 6.3 g ai/10 a, evaluated 21st day after application", "procedure,_shortened": "as §3"}, "[6]": {"tested_on": "China jute (Ab)", "assay": "Test Example 4: crop plant selectivity by upland field soil treatment (cotton), herbicidal effects", "format": "in vivo", "set-up": "scale not given here", "settings": "dose 6.3 g ai/10 a, evaluated 21st day after application", "procedure,_shortened": "as §3"}, "[7]": {"tested_on": "slender amaranth (Am)", "assay": "Test Example 3: herbicidal effects by upland field foliage treatment", "format": "in vivo", "set-up": "scale not given here", "settings": "100 g active ingredient per 10 ares, evaluated 14th day after treatment", "procedure,_shortened": "(§4)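 Using plants cultured for 2 weeks in a greenhouse from seed sown in soil-covered sand (pots 120 cm^2), the compounds were applied to foliage, and weed control was graded by standard criteria 14 days thereafter.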"}, "[8]": {"tested_on": "common lambsquarters (Ch)", "assay": "Test Example 3: herbicidal effects by upland field foliage treatment", "format": "in vivo", "set-up": "scale not given here", "settings": "100 g active ingredient per 10 ares, evaluated 14th day after treatment", "procedure,_shortened": "as §4"}, "[9]": {"tested_on": "pale smartweed (Po)", "assay": "Test Example 3: herbicidal effects by upland field foliage treatment", "format": "in vivo", "set-up": "scale not given here", "settings": "100 g active ingredient per 10 ares, evaluated 14th day after treatment", "procedure,_shortened": "as §4"}, "[10]": {"tested_on": "rice flatsedge (Ci)", "assay": "Test Example 3: herbicidal effects by upland field foliage treatment", "format": "in vivo", "set-up": "scale not given here", "settings": "100 g active ingredient per 10 ares, evaluated 14th day after treatment", "procedure,_shortened": "as §4"}, "[11]": {"tested_on": "Diaitaria ciliaris (Di)", "assay": "Test Example 3: herbicidal effects by upland field foliage treatment", "format": "in vivo", "set-up": "scale not given here", "settings": "100 g active ingredient per 10 ares, evaluated 14th day after treatment", "procedure,_shortened": "as §4"}, "[12]": {"tested_on": "barnyardgrass (Ec)", "assay": "Test Example 3: herbicidal effects by upland field foliage treatment", "format": "in vivo", "set-up": "scale not given here", "settings": "100 g active ingredient per 10 ares, evaluated 14th day after treatment", "procedure,_shortened": "as §4"}, "[13]": {"tested_on": "Diaitaria ciliaris (Di)", "assay": "Test Example 4: crop plant selectivity by upland field soil treatment (cotton), herbicidal effects", "format": "in vivo", "settings": "dose 6.3 g ai/10 a, evaluated 21st day after application", "procedure": "as §1\nIn a plastic pot (surface area: 600 cm^2) filled with sand, cotton (Go), Diaitaria ciliaris (Di), green foxtail (Se), pale smartweed (Po), slender amaranth (Am), common lambsquarters (Ch) and China jute (Ab) were sown and covered with soil. […] The plants were then cultured in a green house, and the evaluation of the herbicidal effects and phytotoxicity was conducted on the 21st day after the application in accordance with the standards as identified in Table 47. Symbol—represents “not tested”."}, "[14]": {"tested_on": "cotton (Go)", "assay": "Test Example 4: crop plant selectivity by upland field soil treatment (cotton), phytotoxicity", "format": "in vivo", "set-up": "scale not given here", "settings": "dose 6.3 g ai/10 a, evaluated 21st day after application", "procedure,_shortened": "as §3"}, "[15]": {"tested_on": "soybean (Gl)", "assay": "Test Example 6: crop plant selectivity by upland field soil treatment (soybean), phytotoxicity", "format": "in vivo", "set-up": "scale not given here", "settings": "dose 6.3 g ai/10a, 21st day after application", "procedure,_shortened": "(§5)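 Seeds are sown in sand and covered with soil. The soil is treated with test compound. Pots are kept in a greenhouse. Weed control and soybean damage are rated visually 21 days after application.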"}, "[16]": {"tested_on": "slender amaranth (Am)", "assay": "Test Example 2: herbicidal effects by upland field soil treatment", "format": "in vivo", "settings": "100 g of the active ingredient per 10 ares, evaluated on the 21st day after application", "excerpt": "(§6) (Test on Herbicidal Effects by Upland Field Soil Treatment)"}, "[17]": {"tested_on": "common lambsquarters (Ch)", "assay": "Test Example 2: herbicidal effects by upland field soil treatment", "format": "in vivo", "settings": "100 g of the active ingredient per 10 ares, evaluated on the 21st day after application", "excerpt": "as §6"}, "[18]": {"tested_on": "Digitaria ciliaris (Di)", "assay": "Test Example 2: herbicidal effects by upland field soil treatment", "format": "in vivo", "settings": "100 g of the active ingredient per 10 ares, evaluated on the 21st day after application", "excerpt": "as §6"}, "[19]": {"tested_on": "pale smartweed (Po)", "assay": "Test Example 2: herbicidal effects by upland field soil treatment", "format": "in vivo", "settings": "100 g of the active ingredient per 10 ares, evaluated on the 21st day after application", "excerpt": "as §6"}, "[20]": {"tested_on": "rice flatsedge (Ci)", "assay": "Test Example 2: herbicidal effects by upland field soil treatment", "format": "in vivo", "settings": "100 g of the active ingredient per 10 ares, evaluated on the 21st day after application", "excerpt": "as §6"}, "[21]": {"tested_on": "barnyardgrass (Ec)", "assay": "Test Example 2: herbicidal effects by upland field soil treatment", "format": "in vivo", "settings": "100 g of the active ingredient per 10 ares, evaluated on the 21st day after application", "excerpt": "as §6"}, "[22]": {"tested_on": "slender amaranth (Am)", "assay": "Test Example 11: crop plant selectivity by upland field foliage treatment (corn), herbicidal effects", "format": "in vivo", "set-up": "scale not given here", "settings": "slender amaranth; foliage treatment; dose 1.6 g ai/10a; evaluated on 14th day after treatment; index per Table 47", "procedure,_shortened": "(§7)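 Corn with pale smartweed, slender amaranth, common lambsquarters and China jute sown in sand-filled pots and grown 2 weeks in a greenhouse before foliage treatment. Herbicidal effect and crop phytotoxicity scored on day 14 after treatment against a rating standard.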"}, "[23]": {"tested_on": "common lambsquarters (Ch)", "assay": "Test Example 11: crop plant selectivity by upland field foliage treatment (corn), herbicidal effects", "format": "in vivo", "set-up": "scale not given here", "settings": "common lambsquarters; foliage treatment; dose 1.6 g ai/10a; evaluated on 14th day after treatment; index per Table 47", "procedure,_shortened": "as §7"}, "[24]": {"tested_on": "pale smartweed (Po)", "assay": "Test Example 11: crop plant selectivity by upland field foliage treatment (corn), herbicidal effects", "format": "in vivo", "set-up": "scale not given here", "settings": "pale smartweed; foliage treatment; dose 1.6 g ai/10a; evaluated on 14th day after treatment; index per Table 47", "procedure,_shortened": "as §7"}, "[25]": {"tested_on": "China jute (Ab)", "assay": "Test Example 11: crop plant selectivity by upland field foliage treatment (corn), herbicidal effects", "format": "in vivo", "set-up": "scale not given here", "settings": "China jute; foliage treatment; dose 1.6 g ai/10a; evaluated on 14th day after treatment; index per Table 47", "procedure,_shortened": "as §7"}, "[26]": {"tested_on": "slender amaranth (Am)", "assay": "Test Example 6: crop plant selectivity by upland field soil treatment (soybean), herbicidal effects", "format": "in vivo", "set-up": "scale not given here", "settings": "dose 6.3 g ai/10a, 21st day after application", "procedure,_shortened": "as §5"}, "[27]": {"tested_on": "common lambsquarters (Ch)", "assay": "Test Example 6: crop plant selectivity by upland field soil treatment (soybean), herbicidal effects", "format": "in vivo", "set-up": "scale not given here", "settings": "dose 6.3 g ai/10a, 21st day after application", "procedure,_shortened": "as §5"}, "[28]": {"tested_on": "pale smartweed (Po)", "assay": "Test Example 6: crop plant selectivity by upland field soil treatment (soybean), herbicidal effects", "format": "in vivo", "set-up": "scale not given here", "settings": "dose 6.3 g ai/10a, 21st day after application", "procedure,_shortened": "as §5"}, "[29]": {"tested_on": "China jute (Ab)", "assay": "Test Example 6: crop plant selectivity by upland field soil treatment (soybean), herbicidal effects", "format": "in vivo", "set-up": "scale not given here", "settings": "dose 6.3 g ai/10a, 21st day after application", "procedure,_shortened": "as §5"}, "[30]": {"tested_on": "monochoria (Mo)", "assay": "Test Example 1: herbicidal effects by paddy field soil treatment", "format": "in vivo", "settings": "100 g of the active ingredient per 10 ares, 21st day after the application, index 0-5 of Table 47", "procedure,_shortened": "(§8)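 Scoring of herbicidal effect came 21 days after application of 100 g active ingredient per 10 ares to flooded (3 cm) paddy-soil pots sown with barnyardgrass, monochoria and bulrush, kept in a greenhouse.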"}, "[31]": {"tested_on": "bulrush (Sc)", "assay": "Test Example 1: herbicidal effects by paddy field soil treatment", "format": "in vivo", "settings": "100 g of the active ingredient per 10 ares, 21st day after the application, index 0-5 of Table 47", "procedure,_shortened": "as §8"}, "[32]": {"tested_on": "barnyardgrass (Ec)", "assay": "Test Example 1: herbicidal effects by paddy field soil treatment", "format": "in vivo", "settings": "100 g of the active ingredient per 10 ares, 21st day after the application, index 0-5 of Table 47", "procedure,_shortened": "as §8"}, "[33]": {"tested_on": "corn (Ze)", "assay": "Test Example 11: crop plant selectivity by upland field foliage treatment (corn), phytotoxicity", "settings": "corn; foliage treatment; dose 1.6 g ai/10a; evaluated on 14th day after treatment; index per Table 47", "procedure,_shortened": "as §7"}}}
{"smiles": "C#CCOc1cc(-c2cn(C)c(C(F)(F)F)cc2=O)c(F)cc1Cl", "note": "[Compound 6-9]", "values": [{"measurement": "Herbicidal effects So", "setting": "[1]", "result": 5}, {"measurement": "Herbicidal effects Di", "setting": "[2]", "result": 5}, {"measurement": "Herbicidal effects Am", "setting": "[3]", "result": 5}, {"measurement": "Herbicidal effects Ch", "setting": "[4]", "result": 5}, {"measurement": "Herbicidal effects Po", "setting": "[5]", "result": 5}, {"measurement": "Herbicidal effects Ab", "setting": "[6]", "result": 5}, {"measurement": "Herbicidal effects Am", "setting": "[7]", "result": 5}, {"measurement": "Herbicidal effects Ch", "setting": "[8]", "result": 5}, {"measurement": "Herbicidal effects Po", "setting": "[9]", "result": 5}, {"measurement": "Herbicidal effects Ci", "setting": "[10]", "result": 5}, {"measurement": "Herbicidal effects Di", "setting": "[11]", "result": 5}, {"measurement": "Herbicidal effects Ec", "setting": "[12]", "result": 5}, {"measurement": "Herbicidal effects Di", "setting": "[13]", "result": 5}, {"measurement": "Phytotoxicity Go", "setting": "[14]", "result": 0}, {"measurement": "Phytotoxicity Gl", "setting": "[15]", "result": 0}, {"measurement": "Herbicidal effects Am", "setting": "[16]", "result": 5}, {"measurement": "Herbicidal effects Ch", "setting": "[17]", "result": 5}, {"measurement": "Herbicidal effects Di", "setting": "[18]", "result": 5}, {"measurement": "Herbicidal effects Po", "setting": "[19]", "result": 5}, {"measurement": "Herbicidal effects Ci", "setting": "[20]", "result": 5}, {"measurement": "Herbicidal effects Ec", "setting": "[21]", "result": 5}, {"measurement": "Herbicidal effects Am", "setting": "[22]", "result": 5}, {"measurement": "Herbicidal effects Ch", "setting": "[23]", "result": 5}, {"measurement": "Herbicidal effects Po", "setting": "[24]", "result": 5}, {"measurement": "Herbicidal effects Ab", "setting": "[25]", "result": 5}, {"measurement": "Herbicidal effects Am", "setting": "[26]", "result": 5}, {"measurement": "Herbicidal effects Ch", "setting": "[27]", "result": 5}, {"measurement": "Herbicidal effects Po", "setting": "[28]", "result": 5}, {"measurement": "Herbicidal effects Ab", "setting": "[29]", "result": 5}, {"measurement": "Herbicidal effects Mo", "setting": "[30]", "result": 5}, {"measurement": "Herbicidal effects Sc", "setting": "[31]", "result": 5}, {"measurement": "Herbicidal effects Ec", "setting": "[32]", "result": 5}, {"measurement": "Phytotoxicity Ze", "setting": "[33]", "result": 1}]}
